Each structure is given as a SMILES string.

Activity data for 29 compounds are collected here from US20100119599A1 (ARCHER PHARMACEUTICALS, INC., priority 2006, published 2010).

In one assay the test system is Aβ1-42. The assay is described as follows: Measurement of Aβ1-42 in culture medium of 7W WT APP751 CHO cells by ELISA. Type of assay: cell-based, Chinese hamster. Particulars: Cricetulus griseus; Table 1; 5 μM test compound; CHO cells stably transfected with human APP751; culture medium, ELISA; control DMSO; 0 = no detectable amount; read-out: Aβ1-42 (% of control).
A further assay relates to Aβ1-40. The assay is described as follows: Measurement of Aβ1-40 in culture medium of 7W WT APP751 CHO cells by ELISA. Particulars: Cricetulus griseus; Table 1; 5 μM test compound; CHO cells stably transfected with human APP751; culture medium, ELISA; control DMSO; 0 = no detectable amount. Type of assay: cell-based, Chinese hamster. (In general: ELISA stands for enzyme-linked immunosorbent assay.)
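Note: 5 µM test compound but RI-coded compounds at 10 µM for 24 hours.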

Consider `CCOc1cc(C2C(C(=O)OCCc3ccccc3)=C(C)NC3=C2C(=O)CCC3)cc(Br)c1O` (stereo not shown) [ST015061, 2-phenylethyl 4-(3-bromo-5-ethoxy-4-hydroxyphenyl)-2-methyl-5-oxo-1,4,6,7,8-pentahydroquinoline-3-carboxylate], for which the activity at 5 µM with Aβ1-42 was determined as 33.5%; in the assay on Aβ1-40, 40.8%.
In the same order, the values of `CC1=C(C(=O)OCCc2ccccc2)C(c2cccc(Cl)c2Cl)C2=C(CCCC2=O)N1` (stereo not shown) [ST015062, 2-phenylethyl 4-(2,3-dichlorophenyl)-2-methyl-5-oxo-1,4,6,7,8-pentahydroquinoline-3-carboxylate] are 20.8% and 30.6%.
Taken in the same sequence, the figures for `CC1=C(C(=O)OCCOc2ccccc2)C(c2ccc(Cl)cc2Cl)C2=C(CC(C)(C)CC2=O)N1` (stereo not shown) [ST015067, 2-phenoxyethyl 4-(2,4-dichlorophenyl)-2,7,7-trimethyl-5-oxo-1,4,6,7,8-pentahydroquinoline-3-carboxylate] were 43.9% and 4.89%.
In the same order, the values of `CCOC(=O)C1=C(C)NC2=C(C(=O)CC(c3ccc(Cl)cc3)C2)C1c1cccc(Cl)c1Cl` (stereo not shown) [ST015068, ethyl 4-(2,3-dichlorophenyl)-7-(4-chlorophenyl)-2-methyl-5-oxo-1,4,6,7,8-pentahydroquinoline-3-carboxylate] are 83.8% and 46.3%.
Regarding `COC(=O)C1=C(C)NC2=C(C(=O)CC(c3ccccc3Cl)C2)C1c1cccc([N+](=O)[O-])c1` (stereo not shown) [ST015070, methyl 7-(2-chlorophenyl)-2-methyl-4-(3-nitrophenyl)-5-oxo-1,4,6,7,8-pentahydroquinoline-3-carboxylate], the values for the activity at 5 µM in the assay with Aβ1-42 and in the assay on Aβ1-40 were 97% and 65.4%, respectively.
Taken in the same sequence, the figures for `COc1cc(C2C(C(=O)OCCOc3ccccc3)=C(C)NC3=C2C(=O)CC(C)(C)C3)ccc1OCc1ccccc1` (stereo not shown) [ST015071, 2-phenoxyethyl 4-[3-methoxy-4-(phenylmethoxy)phenyl]-2,7,7-trimethyl-5-oxo-1,4,6,7,8-pentahydroquinoline-3-carboxylate] were 88.3% and 60.8%.
With `CSc1ccc(C2C(C(=O)OCCOc3ccccc3)=C(C)NC3=C2C(=O)CCC3)cc1` (stereo not shown) [ST015072, 2-phenoxyethyl 2-methyl-4-(4-methylthiophenyl)-5-oxo-1,4,6,7,8-pentahydroquinoline-3-carboxylate], the activity at 5 µM in the assay with Aβ1-42 is 59.4%; in the assay on Aβ1-40, 19.3%.
In the same order, the values of `CCN(CC)c1ccc(C2C(C(=O)OCCOc3ccccc3)=C(C)NC3=C2C(=O)CC(C)(C)C3)cc1` (stereo not shown) [ST015075, 2-phenoxyethyl 4-[4-(diethylamino)phenyl]-2,7,7-trimethyl-5-oxo-1,4,6,7,8-pentahydroquinoline-3-carboxylate] are 42.2% and 51.7%.
For `CC1=C(C(=O)OCCc2ccccc2)C(c2ccc(C)cc2)C2=C(CCCC2=O)N1` (stereo not shown) [ST015076, 2-phenylethyl 2-methyl-4-(4-methylphenyl)-5-oxo-1,4,6,7,8-pentahydroquinoline-3-carboxylate], the activity at 5 µM in the assay with Aβ1-42 amounted to 98.6%; in the assay with Aβ1-40, 58.9%.
In the same order, the values of `CC1=C(C(=O)OCCc2ccccc2)C(c2cccc(Cl)c2)C2=C(CC(C)(C)CC2=O)N1` (stereo not shown) [ST015084, 2-phenylethyl 4-(3-chlorophenyl)-2,7,7-trimethyl-5-oxo-1,4,6,7,8-pentahydroquinoline-3-carboxylate] are 80.2% and 59.5%.
Taken in the same sequence, the figures for `CC1=C(C(=O)OCCc2ccccc2)C(c2ccccc2Cl)C2=C(CC(C)(C)CC2=O)N1` (stereo not shown) [ST015085, 2-phenylethyl 4-(2-chlorophenyl)-2,7,7-trimethyl-5-oxo-1,4,6,7,8-pentahydroquinoline-3-carboxylate] were 72.9% and 69.9%.
As to `CCOc1ccc(C2C(C(=O)OCCc3ccccc3)=C(C)NC3=C2C(=O)CC(C)(C)C3)cc1` (stereo not shown) [ST015087, 2-phenylethyl 4-(4-ethoxyphenyl)-2,7,7-trimethyl-5-oxo-1,4,6,7,8-pentahydroquinoline-3-carboxylate], the activity at 5 µM in the assay with Aβ1-42 worked out at 43.7%; with Aβ1-40, 35.3%.
In the same order, the values of `COc1ccc(C2C(C(=O)OCCc3ccccc3)=C(C)NC3=C2C(=O)CC(C)(C)C3)c(OC)c1` (stereo not shown) [ST015090, 2-phenylethyl 4-(2,4-dimethoxyphenyl)-2,7,7-trimethyl-5-oxo-1,4,6,7,8-pentahydroquinoline-3-carboxylate] are 34.9% and 15.4%.
In the same order, the values of `CC1=C(C(=O)OCCOc2ccccc2)C(c2cccc(Cl)c2)C2=C(CCCC2=O)N1` (stereo not shown) [ST015091, 2-phenoxyethyl 4-(3-chlorophenyl)-2-methyl-5-oxo-1,4,6,7,8-pentahydroquinoline-3-carboxylate] are 75.8% and 62.4%.
Taken in the same sequence, the figures for `CC1=C(C(=O)OCCOc2ccccc2)C(c2ccc(Cl)cc2)C2=C(CC(C)(C)CC2=O)N1` (stereo not shown) [ST015093, 2-phenoxyethyl 4-(4-chlorophenyl)-2,7,7-trimethyl-5-oxo-1,4,6,7,8-pentahydroquinoline-3-carboxylate] were 0% and 0%.
For the compound `COc1cc(C2C(C(=O)OCCc3ccccc3)=C(C)NC3=C2C(=O)CC(C)(C)C3)ccc1O` (stereo not shown) [ST015094, 2-phenylethyl 4-(4-hydroxy-3-methoxyphenyl)-2,7,7-trimethyl-5-oxo-1,4,6,7,8-pentahydroquinoline-3-carboxylate], the activity at 5 µM worked out at 59.8% with Aβ1-42 and 56.3% in the assay on Aβ1-40.
Taken in the same sequence, the figures for `CC1=C(C(=O)OCCOc2ccccc2)C(c2ccc(C)cc2)C2=C(CC(C)(C)CC2=O)N1` (stereo not shown) [ST015095, 2-phenoxyethyl 2,7,7-trimethyl-4-(4-methylphenyl)-5-oxo-1,4,6,7,8-pentahydroquinoline-3-carboxylate] were 0% and 59.7%.
Taken in the same sequence, the figures for `CC1=C(C(=O)OCCOc2ccccc2)C(c2ccccc2Cl)C2=C(CC(C)(C)CC2=O)N1` (stereo not shown) [ST015096, 2-phenoxyethyl 4-(2-chlorophenyl)-2,7,7-trimethyl-5-oxo-1,4,6,7,8-pentahydroquinoline-3-carboxylate] were 80% and 28.1%.
On to `CC1=C(C(=O)OCCc2ccccc2)C(c2ccc(Cl)c(Cl)c2)C2=C(CCCC2=O)N1` (stereo not shown) [ST015098, 2-phenylethyl 4-(3,4-dichlorophenyl)-2-methyl-5-oxo-1,4,6,7,8-pentahydroquinoline-3-carboxylate], for which the activity at 5 µM in the assay on Aβ1-42 worked out at 0%; in the assay on Aβ1-40, 40.9%.
In the same order, the values of `CC1=C(C(=O)OCCc2ccccc2)C(c2ccc(C)cc2)C2=C(CC(C)(C)CC2=O)N1` (stereo not shown) [ST015099, 2-phenylethyl 2,7,7-trimethyl-4-(4-methylphenyl)-5-oxo-1,4,6,7,8-pentahydroquinoline-3-carboxylate] are 33.8% and 14.8%.
Taken in the same sequence, the figures for `CC1=C(C(=O)OCCOc2ccccc2)C(c2ccc3c(c2)OCO3)C2=C(CC(C)(C)CC2=O)N1` (stereo not shown) [ST015103, 2-phenoxyethyl 4-(2H-benzo[3,4-d]1,3-dioxolan-5-yl)-2,7,7-trimethyl-5-oxo-1,4,6,7,8-pentahydroquinoline-3-carboxylate] were 73.5% and 35.3%.
Regarding `CCCOc1ccccc1C1C(C(=O)OCCOc2ccccc2)=C(C)NC2=C1C(=O)CC(C)(C)C2` (stereo not shown) [ST015105, 2-phenoxyethyl 2,7,7-trimethyl-5-oxo-4-(2-propoxyphenyl)-1,4,6,7,8-pentahydroquinoline-3-carboxylate], the values for the activity at 5 µM in the assay on Aβ1-42 and in the assay with Aβ1-40 were 99.8% and 53%, respectively.
Taken in the same sequence, the figures for `CC1=C(C(=O)OCCc2ccccc2)C(c2ccc(Cl)cc2)C2=C(CC(C)(C)CC2=O)N1` (stereo not shown) [ST015106, 2-phenylethyl 4-(4-chlorophenyl)-2,7,7-trimethyl-5-oxo-1,4,6,7,8-pentahydroquinoline-3-carboxylate] were 0% and 13.2%.
Taken in the same sequence, the figures for `COc1ccccc1C1C(C(=O)OCCOc2ccccc2)=C(C)NC2=C1C(=O)CC(C)(C)C2` (stereo not shown) [ST015108, 2-phenoxyethyl 4-(2-methoxyphenyl)-2,7,7-trimethyl-5-oxo-1,4,6,7,8-pentahydroquinoline-3-carboxylate] were 92.1% and 33%.
Taken in the same sequence, the figures for `COc1ccccc1C1C(C(=O)OCCc2ccccc2)=C(C)NC2=C1C(=O)CCC2` (stereo not shown) [ST015110, 2-phenylethyl 4-(2-methoxyphenyl)-2-methyl-5-oxo-1,4,6,7,8-pentahydroquinoline-3-carboxylate] were 90.1% and 42.8%.
Regarding `CC1=C(C(=O)OC2CCCCC2)C(c2cccc(Cl)c2)C2=C(CCCC2=O)N1` (stereo not shown) [ST015159, cyclohexyl 4-(3-chlorophenyl)-2-methyl-5-oxo-1,4,6,7,8-pentahydroquinoline-3-carboxylate], the activity at 5 µM in the assay with Aβ1-42 was determined as 0%; in the assay on Aβ1-40, 2.98%.
Taken in the same sequence, the figures for `CCCCCOC(=O)C1=C(C)NC2=C(C(=O)CCC2)C1c1ccccc1OCC` (stereo not shown) [ST015174, pentyl 4-(2-ethoxyphenyl)-2-methyl-5-oxo-1,4,6,7,8-pentahydroquinoline-3-carboxylate] were 0% and 17.2%.
Taken in the same sequence, the figures for `COC(=O)C1=C(C)NC2=C(C(=O)CC(c3ccccc3Cl)C2)C1c1ccc([N+](=O)[O-])cc1` (stereo not shown) [ST015176, methyl 7-(2-chlorophenyl)-2-methyl-4-(4-nitrophenyl)-5-oxo-1,4,6,7,8-pentahydroquinoline-3-carboxylate] were 76.4% and 17.4%.
In the same order, the values of `CCN(CC)c1ccc(C2C(C(=O)OC)=C(C)NC3=C2C(=O)CC(c2ccccc2Cl)C3)cc1` (stereo not shown) [ST015182, methyl 4-[4-(diethylamino)phenyl]-7-(2-chlorophenyl)-2-methyl-5-oxo-1,4,6,7,8-pentahydroquinoline-3-carboxylate] are 61.4% and 39.9%.
